Measured values from patent US20030207843A1, “Treatment of drug-resistant human immunodeficiency virus infection” (priority 1999, published 2003).

Key:
Format in all cases: cell-based
[1] = test system: HIV-1LAI (wild type, control); assay: p24 reduction assay in MT-2 cells, wild type virus; settings: Table 6; baseline virus HIV-1LAI passage 0; read-out: EC50
Procedure: (§1) Cells. MT-2 cells (AIDS Research and Reference Reagent Program, National Institute of Allergy and Infectious Diseases, National Institutes of Health) were maintained in RPMI 1640 supplemented with 10% fetal bovine serum (FBS; JRH Biosciences, Lenexa, Kans.), 10 mM HEPES buffer, 50 IU/ml penicillin and 50 μg/ml streptomycin.
Viruses. Stock virus was prepared by electroporating (BIO-RAD Gene Pulser®, Hercules, Calif.) MT-2 cells (1.3×10^7 cells) with 5-10 μg of plasmid DNA encoding a proviral clone of HIV-1LAI (see Nguyen, et. al., Antimicrob. Agents Chemother. 38:2409-2414, and Peden, et. al., Virology 185: 661-672.). At peak cytopathic effect (generally 5-7 days post-transfection), culture supernatants were harvested and stored at −80° C. Viral infectivity titers were determined in threefold endpoint dilution assays conducted in MT-2 cells (six wells per dilution). The 50% tissue culture infective dose (TCID50) was calculated using the Reed and Muench equation (see Reed, et. al., Am. J. Hyg. 27:493-496).
Antiviral Susceptibility Assays. The antiviral activity of each compound […], followed by incubation in the presence of three-fold serial drug dilutions (3 wells per dilution) (see Mellors, et. al., Antimicrob. Agents Chemother. 39:1087-1092). Five or seven days after infection, culture supernatants were harvested, lysed with 0.5% triton-X 100 and assayed for p24 antigen concentration using a commercial ELISA assay (DuPont, NEN Products, Wilmington, Del.). The antiviral activity of the compounds is expressed as the IC50, which is the concentration required to inhibit 50% of p24 antigen production. The fold-resistance of a test virus is calculated by dividing the IC50 of the test virus by the IC50 of the HIV-1LAI control virus.
Cultures of MT-2 cells infected with either wild type (xxLAI) or with the drug-resistant strains of HIV-1 listed above were treated with lipid analogs of PFA (B-PFA, MB-PFA, or EB-PFA). The μM concentration required to produce 50% inhibition of replication of the drug-resistant strain of HIV (EC50) was determined as shown in Table 1. Drug effects were measured by assaying p24 (a viral protein) in the culture medium.

[2] = test system: HIV-1LAI selected with DB-PFA, passage 18 (S117T, L214F); assay: Susceptibility of virus selected in vitro with DB-PFA
Procedure: (§2) Antiviral Susceptibility Assays. The antiviral activity of each compound was determined by inoculating MT-2 cells with HIV-1LAI at a multiplicity of infection (MOI) of 0.01 TCID50/cell, followed by incubation in the presence of three-fold serial drug dilutions (3 wells per dilution) (see Mellors, et. al., Antimicrob. Agents Chemother. 39:1087-1092). Five or seven days after infection, culture supernatants were harvested, lysed with 0.5% triton-X 100 and assayed for p24 antigen concentration using a commercial ELISA assay (DuPont, NEN Products, Wilmington, Del.). The antiviral activity of the compounds is expressed as the IC50, which is the concentration required to inhibit 50% of p24 antigen production. The fold-resistance of a test virus is calculated by dividing the IC50 of the test virus by the IC50 of the HIV-1LAI control virus.
Selection of Resistant Viruses. […] Viral cytopathic effects (CPE) were monitored daily. […] The passaged virus was monitored regularly for a reduction in susceptibility to the compounds by determining the EC50 relative to unpassaged HIV-1LAI (Mellors, et. al., Antimicrob. Agents Chemother. 39:1087-1092). […]

[3] = test system: HIV-1LAI S117T; assay: p24 reduction assay in MT-2 cells, S117T; settings: Example 6, recombinant virus encoding S117T
Procedure: as §1, §2
(§3) Generation of Mutant Recombinant HIV-1. HIV-1 containing the desired mutations were generated by oligonucleotide directed mutagenesis (Altered Sites II, Promega) as previously described (Mellors, et. al., Molecular Pharm. 41:446-451). After mutagenesis, mutant RT was subcloned into the pxxHIV-1LAI cloning vector using the silent XmaI and XbaI restriction sites located at the 5′ and 3′ ends of RT. Clones were DNA sequenced to verify the presence of the desired mutation(s) and electroporated into MT-2 cells as described above to generate infectious mutant recombinant HIV-1.
Mutant RT was generated via oligonucleotide-directed mutagenesis and ligated into the pXXHIV-1LAI cloning vector. Cloning was facilitated by the presence of two silent restriction sites at the 5′ and 3′ ends (Xma1 and Xba1, respectively) of pXXHIV-1LAI RT. Infectious mutant recombinant HIV-1 was generated by electroporating MT-2 cells with mutated pXXHIV-1LAI clones. The presence of the desired mutations was verified by DNA sequencing.
DNA sequencing identified two mutations in RT: S117T and L214F.
(§4) Recombinant viruses containing the mutations selected by invention compounds were also evaluated for their susceptibility to AZT, as shown in Table 8.

[4] = test system: HIV-1LAI S117T/L214F; assay: p24 reduction assay in MT-2 cells, S117T/L214F; settings: Example 6; recombinant virus encoding S117T plus L214F
Procedure: as §1, §2, §3
Mutant RT was generated via oligonucleotide-directed mutagenesis and ligated into the pXXHIV-1LAI cloning vector. […]
as §4

Work on “1-O-octadecyl-propanediol-3-PFA [DB-PFA]” yielded an EC50 [1] of 830 nM, an EC50 ([2]; Table 6, passage 18 (S117T, L214F)) of 8.97 µM and a Fold resist. ([2]; Table 6, passage 18, relative to passage 0) of 10.8. For the same substance, the Fold resistance [3] was 10.0 fold, the EC50 ([3]; read-out: EC50) was 9 µM and the Fold resistance [4] was 9.7 fold.
